# Results from US12171813B2, “Methods of and compositions for reducing gene expression and/or activity” (Christiana Care Gene Editing Institute, Inc., priority 2021, dated 2024).
# Tested on: EGFR gene
# Test: Screening of SureKill guide RNAs in the EGFR gene for ability to induce indels
# Type: cell-based
# Conditions: transfections of individual guide RNAs (spCas9 RNP); PDMR human lung adenocarcinoma cells with EGFR L858R; DECODR
# Experimental: Human lung squamous cell carcinoma NCI-H1703 clone 44-25 cells were derived from NCI-H1703 cells (#CRL-5889) which were purchased from ATCC (Manassas, VA, USA). NCI-H1703 clone 44-25 cells contains R34G mutation (C 4 G) in NFE2L2 gene. H1703 clone 44-25 cells were cultured in ATCC formulation RPMI-1640 with 10% FBS. T75 flasks were used and cells were split 1:5 upon reaching 90% confluency. Human lung adenocarcinoma cells (Dist. Lot. No. LG0703-F948-PDC) were acquired from the National Institute of Health's National Cancer Institute's Patient-Derived Models Repository (PDMR). This PDMR cell line contains the L858R mutation (T 4 G) in the EGFR gene. The PDMR cells were maintained in Advanced DMEM/F12 media containing 10% FBS, 0.4 μg/mL hydrocortisone, 0.01 μg/mL EGF Recombinant Human Protein, 24 μg/mL adenine, and 2 mM L-Glutamine. T75s were used and cells were split 1:3 upon reaching 90% confluency. All cultures were maintained in cell culture incubators at 37° C. and 5% CO2.
# Ribonucleoproteins (RNP) are complexed by incubating 250 pmol of purified synthetic gRNA (Synthego Corporation, Redwood City, CA) with 50 pmol of purified spCas9 (Synthego Corporation, Redwood City, CA) at room temperature in nuclease-free 1× TE buffer for 15 minutes.
# Transfections were carried out using the Lonza Nuclefector 4d. Cultures in t75s at 90% confluence were split 1:2 24 hours prior to transfection. RNPs were complexed at 250:50 pmol for 30 minutes prior to transfection, during which time cells were harvested and counted. All reactions were 100 μL and contained 1 e6 cells. Lonza SF solution and Nucleofector program CM-130 were used in all transfections of the H1703 cell line. Lonza SE solution and Nucleofector program CA-137 were used in all transfections of the PDMR. After transfection, 500 μL of media that had been equilibrated to cell culture CO2 and temperature conditions was added to each 100 μL cuvettes. Cuvettes were then placed in the incubator. After 20 minutes, the entire content of each cuvette was seeded into 3 mL of media in a 6 well plate. After 72 hours, samples were dissociated using 200 μL Trypsin 0.25% for 5 minutes. 800 μL culture media was used to quench and split into 1.5 mL tubes each containing 500 μL of the sample. Tubes were spun at 300×g for 5 minutes. One of the tubes was placed in the −20° C. freezer and the other was resuspended in 500 μL of Trizol for RNA extraction and cDNA synthesis.
# All sequencing was performed on the Applied Biosystems SeqStudio. The BigDye Terminator v3.1 Cycle Sequencing Kit was used to prepare samples for sequencing. Resulting sequences were analyzed with DECODR to determine indel rates (Bloh et al., CRISPR J. 4:120-31 (2021)).
# Human EGFR is a frequently mutated gene that is associated with cancers. One of the most common mutations is L858R which results in the creation of a novel PAM site, making it a targetable sequence by CRISPR. Like the R34G mutation, the CRISPR designed to target the L858R mutation is not highly efficient on its own. By combining the L858R-targeting CRISPR with another CRISPR of high efficiency in a downstream intronic region, exon skipping can be induced, resulting in a higher efficiency of functional knockout than the L858R targeting CRISPR alone. To find a suitable gRNA to pair with the L858R targeting CRISPR, we selected the intron between exons 21 and 22 (FIG. 6). A series of gRNAs were created in this region and screened for their ability to induce indels, a measure of their activity using DECODR (Bloh et al., CRISPR J. 4:120-31 (2021)) (Table 3).
# In Table 3, all sequences are listed from 5′ to 3′. Indel percent, a measure of CRISPR activity, is based on transfections of individual guide RNAs. All guide RNAs, with the exception of L858R, were designed in the intron between exons 21 and 22.
substance,measurement,value
"L858R gRNA: guide RNA TCAAGATCACAGATTTTGGG, SEQ ID NO:8, targets EGFR L858R mutation (listed as DNA, chemistry not given here)",indel %,73.2%
